According to patent publication US11986532B2 (Arvinas Operations, Inc., priority 2021, dated 2024):
Like-named read-outs stand apart in the source and are kept apart here.

Target: T1, BCL6 (Homo sapiens, UniProt P41182)
T1 construct: endogenous in cells; host or cells: T47D breast cancer epithelial cells
Test: Immunofluorescence protocol for high content imaging of BCL6 (degradation) in T47D cells, 3 days compound treatment
Assay type: cell-based
Details: for Dmax: read-out: Mean Dmax (%)** category; for DC50: read-out: Mean DC50 (nM)* category
Protocol: Immunofluorescence Protocol for High Content Imaging of BCL6
T47D cells were seeded in 100 μl volume of RPMI1640-10% FBS in a 96-well black/clear bottom plates for adherent lines (Corning #3904).
Day 1. T47D breast cancer epithelial cells were seeded at a density so that confluence is ˜70-90% at endpoint. Cells were seeded at 7K/0.1 ml/well the morning prior to the addition of exemplary bifunctional degradation compounds.
Day 2. Prepare an 11 point 3-fold serial dilution of exemplary bifunctional compound in DMSO and aliquot an appropriate volume to cell growth media to generate a 2× final concentration of exemplary bifunctional compound. Add an equal volume (0.1 ml) of 2× exemplary bifunctional compound/media mix to previously plated cells, for a final top concentration in aqueous cell growth media of 0.1 or 1 μM. Incubate for 3 days at 37° C., 5% CO2.
Day 5 Immunofluorescence. Discard cell media. Wash wells with 200 μl of room temperature phosphate-buffered saline (PBS). Prepared 4% paraformaldehyde (PFA) from 16% PFA (Electron Microscopy Sciences #15710) using 1×PBS. Fifty μl of 4% PF was added to each well and incubate for 15 minutes at room temperature to fix the cells. The PFA was aspirated and the cells washed twice with PBS (200 μl)).
Prepared 0.1% Triton X-100 in PBS using 10% triton X-100 stock. The cells were permeabilized by adding 100 ul of the 0.1% Triton X-100 in PBS to each well to permeabilize cells and incubating at room temperature for 15 minutes. Cells were washed twice with PBS.
Prepared 3% BSA/PBS (from Thermofisher #37515 Blocker BSA in TBS, 10%), and 100 ul was added to each well. The cells were incubated for at least 1 hour at room temperature.
Prepared 1% BSA/PBS using Blocker BSA/PBS, and the 3% BSA/PBS removed from the wells.
For no primary antibody controls, 50 μl 1% BSA/PBS was added.
Primary antibody (BCL6 Rb Ab, CST-14895, Cell Signaling) was diluted 1:300 in 1% BSA/PBS using Blocker BSA/PBS.
Fifty μl of primary antibody added to all remaining wells (i.e., all wells other than the primary antibody controls) and the cells were incubated overnight at 4° C. with slow orbital movement.
Day 6. Contents of the wells was removed and the cells washed four times with 200 ul PBS. 1% BSA/PBS was prepared using Blocker BSA in PBS.
Diluted secondary antibody goat anti-Rb IgG Alexa-488 1:1000, and cell mask-Alexa-647 1:3000 in 1% BSA/PBS in the same mix. Add 50 μl to each well and incubate at room temperature for 1 hour in the dark.
Cells were washed three times with 200 ul PBS, and then incubated for 10 minutes with 100 ul Hoechst dye at 1 μg/mL (20 mM stock) to stain cell nuclei. Wells were then washed with 200 μl PBS, and 100 ul of PBS was added to each well and the plate covered plate with a plastic opaque cover. Plates were stored at 4° C. and covered in aluminum foil until imaged.
Plates were equilibrated to room temperature prior to reading. The bottom of the plate was wiped with 70% isopropanol immediately prior to imaging.
10×, 4 fields/well, include Top hat smoothing in the analysis protocol.
16% paraformaldehyde: Electron Microscopy Sciences #15710
Hoechst: Thermofisher #62249
Blocker BSA in PBS, 10%: Thermofisher #37515
Blocker BSA in TBS, 10%: Thermofisher #37520
Goat anti-rabbit or mouse AlexaFluor-488: Thermofisher #A11008
Cell mask deep red AlexaFluor-647: Thermofisher #C10046
Wash buffer, PBS: 20×PBS, Thermofisher

[1] = T47D cells, 3 days compound treatment

SMILES	Dmax (T47D) [%]	DC50 [nM]	DC50 [1] [nM]	Dmax [1] [%]
CNC(=O)COc1cc2cc(Nc3nc(N4CCC(O[C@H]5C[C@H](N6CCN(c7ccc8c(c7)C(=O)N(C7CCC(=O)NC7=O)C8=O)C[C@@H]6C)C5)CC4)ncc3Cl)ccc2n(C(C)C)c1=O (stereo partly drawn) [Compound 261, 2-({6-[(5-chloro-2-{4-[(1r,3r)-3-[(2S)-4-[2-(2,6-dioxopiperidin-3-yl)-1,3-dioxo-2,3-dihydro-1H-isoindol-5-yl]-2-methylpiperazin-1-yl]cyclobutoxy]piperidin-1-yl}pyrimidin-4-yl)amino]-2-oxo-1-(propan-2-yl)-1,2-dihydroquinolin-3-yl}oxy)-N-methylacetamide]	50 to 70	10 to 50	–	–
CNC(=O)COc1cc2cc(Nc3nc(N4CCC(C(C)(C)N5CCC6(CCN(c7ccc8c(c7)CN(C7CCC(=O)NC7=O)C8=O)C6)C5)CC4)ncc3Cl)ccc2n(C(C)C)c1=O (stereo not shown) [Compound 53]	–	–	< 10	50 to 70
CNC(=O)COc1cc2cc(Nc3nc(N4CCN(CC5CC6(CCN(c7ccc8c(c7)CN(C7CCC(=O)NC7=O)C8=O)CC6)C5)CC4)ncc3Cl)ccc2n(C(C)C)c1=O (stereo not shown) [Compound 6, 2-{[6-({5-chloro-2-[4-({7-[2-(2,6-dioxopiperidin-3-yl)-1-oxo-2,3-dihydro-1H-isoindol-5-yl]-7-azaspiro[3.5]nonan-2-yl}methyl)piperazin-1-yl]pyrimidin-4-yl}amino)-2-oxo-1-(propan-2-yl)-1,2-dihydroquinolin-3-yl]oxy}-N-methylacetamide]	–	–	< 10	50 to 70
CNC(=O)COc1cc2cc(Nc3nc(N4CCC(OC5CCC6(CC5)CN(c5cc(F)cc7c5CN(C5CCC(=O)NC5=O)C7=O)C6)CC4)ncc3Cl)ccc2n(C(C)C)c1=O (stereo not shown) [Compound 299, 2-{[6-({5-chloro-2-[4-({2-[2-(2,6-dioxopiperidin-3-yl)-6-fluoro-1-oxo-2,3-dihydro-1H-isoindol-4-yl]-2-azaspiro[3.5]nonan-7-yl}oxy)piperidin-1-yl]pyrimidin-4-yl}amino)-2-oxo-1-(propan-2-yl)-1,2-dihydroquinolin-3-yl]oxy}-N-methylacetamide]	50 to 70	< 10	–	–
CNC(=O)COc1cc2cc(Nc3nc(N4CCC(F)(CN5CC6(CCN(c7cc8c(cc7F)C(=O)N(C7CCC(=O)NC7=O)C8)CC6)C5)CC4)ncc3Cl)ccc2n(C(C)C)c1=O (stereo not shown) [Compound 106]	–	–	< 10	50 to 70
CNC(=O)COc1cc2cc(Nc3nc(N4CCC(O[C@H]5C[C@H](N6CCN(c7c(OC)cc8c(c7C)C(=O)N(C7CCC(=O)NC7=O)C8=O)CC6)C5)CC4)ncc3Cl)ccc2n(C(C)C)c1=O (stereo partly shown) [Compound 266, 2-({6-[(5-chloro-2-{4-[(1r,3r)-3-{4-[2-(2,6-dioxopiperidin-3-yl)-6-methoxy-4-methyl-1,3-dioxo-2,3-dihydro-1H-isoindol-5-yl]piperazin-1-yl}cyclobutoxy]piperidin-1-yl}pyrimidin-4-yl)amino]-2-oxo-1-(propan-2-yl)-1,2-dihydroquinolin-3-yl}oxy)-N-methylacetamide]	≥ 70	< 10	–	–
CNC(=O)COc1cc2cc(Nc3nc(N4CCC(O[C@H]5C[C@H](N6CCN(c7ccc8c(c7Cl)CN(C7CCC(=O)NC7=O)C8=O)[C@@H](C)C6)C5)CC4)ncc3Cl)ccc2n(C(C)C)c1=O (stereo partly drawn) [Compound 206, 2-({6-[(5-chloro-2-{4-[(1r,3r)-3-[(3S)-4-[4-chloro-2-(2,6-dioxopiperidin-3-yl)-1-oxo-2,3-dihydro-1H-isoindol-5-yl]-3-methylpiperazin-1-yl]cyclobutoxy]piperidin-1-yl}pyrimidin-4-yl)amino]-2-oxo-1-(propan-2-yl)-1,2-dihydroquinolin-3-yl}oxy)-N-methylacetamide]	–	–	< 10	≥ 70
CNC(=O)COc1cc2cc(Nc3nc(N4CCC(O[C@H]5C[C@H](N6CC7(CCN(c8ccc9c(c8)C(=O)N(C8CCC(=O)NC8=O)C9=O)C7)C6)C5)CC4)ncc3Cl)ccc2n(C(C)C)c1=O (stereo partly shown) [Compound 350, 2-({6-[(5-chloro-2-{4-[(1r,3r)-3-{6-[2-(2,6-dioxopiperidin-3-yl)-1,3-dioxo-2,3-dihydro-1H-isoindol-5-yl]-2,6-diazaspiro [3.4]octan-2-yl}cyclobutoxy]piperidin-1-yl}pyrimidin-4-yl)amino]-2-oxo-1-(propan-2-yl)-1,2-dihydroquinolin-3-yl}oxy)-N-methylacetamide]	≥ 70	< 10	–	–
CNC(=O)COc1cc2cc(Nc3nc(N4CCC(O[C@H]5C[C@H](N6CCC(c7ccc8c(c7F)[C@@H](C)N(C7CCC(=O)NC7=O)C8=O)CC6)C5)CC4)ncc3Cl)ccc2n(C(C)C)c1=O (stereo partly drawn) [Compound 289, 2-({6-[(5-chloro-2-{4-[(1r,3r)-3-{4-[(3R)-2-(2,6-dioxopiperidin-3-yl)-4-fluoro-3-methyl-1-oxo-2,3-dihydro-1H-isoindol-5-yl]piperidin-1-yl}cyclobutoxy]piperidin-1-yl}pyrimidin-4-yl)amino]-2-oxo-1-(propan-2-yl)-1,2-dihydroquinolin-3-yl}oxy)-N-methylacetamide]	≥ 70	< 10	–	–
CNC(=O)COc1cc2cc(Nc3nc(N4CCOC5(CN(CCC6CCN(c7ccc8c(c7)C(=O)N(C7CCC(=O)NC7=O)C8=O)CC6)C5)C4)ncc3Cl)ccc2n(C(C)C)c1=O (stereo not shown) [Compound 145, 2-{[6-({5-chloro-2-[2-(2-{1-[2-(2,6-dioxopiperidin-3-yl)-1,3-dioxo-2,3-dihydro-1H-isoindol-5-yl]piperidin-4-yl}ethyl)-5-oxa-2,8-diazaspiro[3.5]nonan-8-yl]pyrimidin-4-yl}amino)-2-oxo-1-(propan-2-yl)-1,2-dihydroquinolin-3-yl]oxy}-N-methylacetamide]	–	–	< 10	–
CNC(=O)COc1cc2cc(Nc3nc(N4CCN(CC5CCN(c6ccc7c(c6OC)CN(C6CCC(=O)NC6=O)C7=O)CC5)CC4)ncc3Cl)ccc2n(C(C)C)c1=O (stereo not shown) [Compound 20, 2-{[6-({5-chloro-2-[4-({1-[2-(2,6-dioxopiperidin-3-yl)-4-methoxy-1-oxo-2,3-dihydro-1H-isoindol-5-yl]piperidin-4-yl}methyl)piperazin-1-yl]pyrimidin-4-yl}amino)-2-oxo-1-(propan-2-yl)-1,2-dihydroquinolin-3-yl]oxy}-N-methylacetamide]	–	–	≥ 100	≥ 70
CNC(=O)COc1cc2cc(Nc3nc(N4CCC(CN5CC(N6CCC(c7ccc8c(c7)C(=O)N(C7CCC(=O)NC7=O)C8=O)C(F)C6)C5)CC4)ncc3Cl)ccc2n(C(C)C)c1=O (stereo not shown) [Compound 213, 2-({6-[(5-chloro-2-{4-[(3-{4-[2-(2,6-dioxopiperidin-3-yl)-1,3-dioxo-2,3-dihydro-1H-isoindol-5-yl]-3-fluoropiperidin-1-yl}azetidin-1-yl)methyl]piperidin-1-yl}pyrimidin-4-yl)amino]-2-oxo-1-(propan-2-yl)-1,2-dihydroquinolin-3-yl}oxy)-N-methylacetamide]	50 to 70	10 to 50	–	–
CNC(=O)COc1cc2cc(Nc3cc(N4CCC(CN5CCC6(CC5)CN(c5ccc7c(c5)CN(C5CCC(=O)NC5=O)C7=O)C6)CC4)ncc3Cl)ccc2n(C(C)C)c1=O (stereo not shown) [Compound 321, 2-{[6-({5-chloro-2-[4-({2-[2-(2,6-dioxopiperidin-3-yl)-1-oxo-2,3-dihydro-1H-isoindol-5-yl]-2,7-diazaspiro[3.5]nonan-7-yl}methyl)piperidin-1-yl]pyridin-4-yl}amino)-2-oxo-1-(propan-2-yl)-1,2-dihydroquinolin-3-yl]oxy}-N-methylacetamide]	50 to 70	< 10	–	–
